Source: patent US3971814A, “Benzo(b)thiophene derivatives” (priority 1972, dated 1976)
“Also recorded” adds a separate entry of the source.

What was measured:
[1] = Summary: calculated ED50 and therapeutic ratio; assay type: in vivo, rat; details: for ED50: Rattus norvegicus; for therapeutic ratio: from ED50 and LD50 (A)
Description: From the ED50 and LD50 (A) the following therapeutic ratios for this test are calculated: […]

male mice (NMRI) [2] = experiment: Hot-plate test (analgesia); assay type: in vivo; details: mouse
Description: male mice (NMRI) weighing 18 to 28 g are used as test animals. The animals are placed on a copper plate constantly kept at 55°C, and the time is measured until they lick their forepaws.
Following 3 initial measurements, the test substances are administered intragastrically. Afterwards the measurements are repeated over a period of 2 hours at intervals of 30 minutes. Each dose is administered to 10 animals selected from groups of 15 animals following the initial measurements.
The test substances are administered as a suspension in 1% Tragacanth mucilage, the volume of liquid amounting to 2 ml/100 g of body weight.
For the purpose of statistical evaluation according to Litchfield and Wilcoxon, those animals in which the reaction time has been extended by at least 100% are considered protected.

[3] = tested on: Kaolin Edema of the Rat Paw; experiment: Kaolin edema of the rat paw; assay type: in vivo
Description: test animals used are the same as stated under Example B and up to the beginning of the test, the procedure corresponded to that described under this example.
After an initial measurement, a sterile 25% kaolin suspension was injected (0.05 ml/paw) subplantarly. The test substances are administered immediately, and after 60, 120, and 180 minutes the paw volume is again determined.
Evaluation of the tests was performed as stated under Example C, and the results so obtained presented below: […]

[4] = tested on: increased body temperature of the rat; experiment: Antipyresis (yeast-induced fever); assay type: in vivo; details: i.g.
Description: test animals are male rats (SIV 50) weighing 100 to 180 g. 16 hours prior to the beginning of the test a 12% suspension of dried yeast (1 or 2 ml/100 g of body weight) is injected subcutaneously. When the maximum of the increase in body temperature is reached, following 3 to 4 initial measurements, the test substances are applied intragastrically and the development of the body temperature is observed for a period of 7 hours.
The test substances administered are suspended in Tragacanth mucilage; the volume of liquid administered amounting to 2 ml/100 g of body weight. In this test 2 control groups are used, one given sodium chloride subcutaneously (normal temperature group) and to the other group a yeast suspension is administered subcutaneously but, instead of the test substances, Tragacanth mucilage is administered intragastrically (fever control group).

[5] = tested on: Arthritis Induced by the Freund Adjuvant; experiment: Adjuvant arthritis; assay type: in vivo; details: rat, i.g.
Description: test animals used are the same as described under Example E; food and water is given ad libitum.
On the first day of the test a 0.8% suspension of Mycobacterium butyrium in paraffin (0.05 or 0.1 ml/paw) is injected subplantarly into the left hind paw of the animals. […] From the 19th to the 22nd day the animals showing a reaction are treated intragastrically with the test substances. The right paw having been marked above the ankle-joint, the volume is determined daily from the 19th to the 22nd or 23rd day, according to the process described under Example B.
The volume of liquid, as well as of the carrier administered, corresponded to that described in the above tests.

Granulation Tissue = experiment: Cotton-pellet test (granulation tissue); assay type: in vivo; details: rat; for Granulation Tissue % (Dry Weight) / Increase in Body Weight: i.g.; for granulation tissue % dry weight: ig., 2×1,5 mg/kg daily, section K
Description: test animals are male rats (SIV 50) weighing 110 to 200 g. All test animals are kept fasting for 16 to 18 hours prior to the implantation of the pellets; after that food and water were available ad libitum. Each dose level of the chemical tested was administered to 12 animals. The substances were suspended in 1% Tragacanth mucilage and administered intragastrically by means of a stomach tube. The substances to be investigated and the control suspensions are administered once on the operating day following operation, and twice a day on the following 6 days (at intervals of 6 to 8 hours). The type of application and volume of liquid corresponded to that under B.
Under light ether anesthesia 4 sterile cotton pellets were implanted under the skin on the back of the animal. The weight of one pellet was 50 mg ± 0.5 mg. After 7 days treatment, the animals were sacrificed, the pellets removed with the granulation tissue, weighed and then dried in the incubator at +80°C to constant weight. The average dry weight of the granulation tissue of the control group was rated 100%, and deviations of the mean weights of the group treated with the test substance determined as a percentage thereof.
The weight of the animals is measured daily throughout the tests, and the percental increase determined. At the end of some tests, moreover, the suprarenal glands are removed and their weight determined.

[6] = tested on: Yeast Edema of the Rat Paw; experiment: Yeast edema and determination of pain threshold in the rat paw; assay type: in vivo; details: 3 h; for Pain Threshold (change vs initial value) / Volume (increase in paw volume, blank control = 100%): i.g.
Description: test animals are male rats (SIV 50) weighing 100 to 180 g. […] 10 animals belonged to each dosage group.
The volume of the paw is determined according to the method described by Enders and Heidbrink, the pain threshold according to that described by Randall and Selitto (Arch. Int. Pharmacodyn CXI: 409, 1957).
Following initial measurements, […] of a 5% suspension of dried yeast is injected subplantarly into the right paw and the test substances are administered immediately. The blank control group is given Tragacanth mucilage only. After 3 hours the pain threshold and the volume of the paw are determined again.
The mean value of the increase in paw volume of the animals of the blank control after 3 hours is rated 100%, and the mean value of the increase in paw volume of the animals of the substance groups expressed as a percentage thereof. Pain threshold after 3 hours reflects the increase or decrease in percent, compared to the initial value.
In order to be able to calculate the ED50 according to the method by Lichtfield and Wilcoxon (J.P.E.T. 96:99, 1949), those animals in a dose group are considered protected when the paw swelling was at least 40% less than that of the blank control.

Granuloma Pouch = experiment: Granuloma pouch test; assay type: in vivo; details: rat, i.g.
Description: Under light ether anesthesia 25 ml of air are injected under the shaved skin of the back. 0.5 ml of croton oil/animal (0.05%) are injected into the pouch formed by the air, and evenly distributed over the back by turning the animal.
On the third day croton oil (3%, 0.5 ml/animal) is again injected into this pouch.
The average dry weights of the granuloma pouches and the quantities of secretion of the groups subjected to treatment are then compared with those of the control group and the percental deviations calculated.
At the end of some tests the suprarenal glands are removed and the weight of these organs is also determined.
The weight of the animals is measured daily and the changes determined as a percentage.

[7] = tested on: Carrageenin Edema of the Rat Paw; experiment: Carrageenin edema of the rat paw; assay type: in vivo
Description: test animals used are the same as stated under Example B and up to the initial measurement, the procedure corresponded to that described under this example.
After an initial measurement, the test substances are administered and after 60 minutes a 1% Carrageenin suspension is injected subplantarly (0.1 ml/paw). After 60 and 180 minutes the paw volume is again determined. Here, too, the blank control group was treated with the carrier alone.
The increase in the volume of the paw after 60 minutes is considered as the first phase of the biphase edema and that after 180 minutes, as compared to the 60-minute-value, as the second phase. Moreover, the total increase of the paw edema within 180 minutes, as compared to the initial value, is also determined.
Determination of the influence exerted by the substances upon the development of the paw edema and calculation of the ED50 are done as under Example B.

male mice (NMRI) [8] = details: mouse, in vivo
[9] = Overall summary of pharmacological results in words; assay type: in vivo
in vivo [10] = details: rat, po
Description: experimental animals are male mice (NMRI) weighing 16 to 24 g and male rats (SIV 50) weighing 120 to 180 g.
Prior to the beginning of the test, all animals are kept fasting for 16 to 18 hours, however water is offered ad libitum. 6 mice and 4 or 6 rats belonged to each dosage group and the doses between each group are increased logarithmically. The volume of liquid administered during testing amounted to 2 ml/100 g body weight. The substances tested are suspended in 1 percent Tragacanth mucilage and administered intragastrically via a gastric tube.

in vivo [11] = details: mouse, po

CCOC(=N)c1sc2ccccc2c1O [Example 2, Ethyl 3-Hydroxy-Benzo[b]Thiophene-2-Carboximidate]
ED50 [1]: 93.1 mg/kg
therapeutic ratio [1]: 42.9
analgesic activity (male mice (NMRI) [2]; as shown in (H)): sufficient analgesic activity
60 Minutes (paw edema) ([3]; 25.0 mg/kg): 36%
120 Minutes (paw edema) ([3]; 25.0 mg/kg): 44%
180 Minutes (paw edema) ([3]; 25.0 mg/kg): 50%
60 Minutes (paw edema) ([3]; 50.0 mg/kg): 62%
120 Minutes (paw edema) ([3]; 50.0 mg/kg): 40%
180 Minutes (paw edema) ([3]; 50.0 mg/kg): 5%
antipyretic effect ([4]; 150 mg/kg vs 300 mg/kg acetylsalicylic acid): considerably more effective than 300 mg/kg of acetylsalicylic acid
antipyretic effect (decreasing body temperature) ([4]; yeast fever, vs control substances): superiority of the Example 2 substance for decreasing body temperature; also recorded: stronger than that of comparable substances
Swelling ([5]; 2 × 125.0 mg/kg): 81%
Granulation Tissue % (Dry Weight) (Granulation Tissue; 2 × 75 mg/kg daily): 78%
Increase in Body Weight (Granulation Tissue; 2 × 75 mg/kg daily): not influenced
Pain Threshold (change vs initial value) ([6]; 31.2 mg/kg): +10%
Volume (increase in paw volume, blank control = 100%) ([6]; 31.2 mg/kg): 77%
Pain Threshold (change vs initial value) ([6]; 62.5 mg/kg): +46%
Volume (increase in paw volume, blank control = 100%) ([6]; 62.5 mg/kg): 50%
Volume (increase in paw volume, blank control = 100%) ([6]; 125.0 mg/kg): 35%
Granuloma Pouch Dry Weight (Granuloma Pouch; 2 × 125 mg/kg daily): 70%
Increase in Body Weight (Granuloma Pouch; 2 × 125 mg/kg daily): not influenced
Secretion (Granuloma Pouch; 2 × 125 mg/kg daily): 59%
1st Phase (paw edema) ([7]; 62.5 mg/kg): 65%
2nd Phase (paw edema) ([7]; 62.5 mg/kg): 73%
3 Hrs. (total paw edema) ([7]; 62.5 mg/kg): 62%
1st Phase (paw edema) ([7]; 125.0 mg/kg): 65%
2nd Phase (paw edema) ([7]; 125.0 mg/kg): 27%
3 Hrs. (total paw edema) ([7]; 125.0 mg/kg): 42%
1st Phase (paw edema) ([7]; 250.0 mg/kg): 29%
2nd Phase (paw edema) ([7]; 250.0 mg/kg): 20%
3 Hrs. (total paw edema) ([7]; 250.0 mg/kg): 25%
LD50 (male mice (NMRI) [8]): 3.890 mg/kg
anti-inflammatory effect ([9]; all test models): proved in all test models; also recorded: of the same order as that of the most potent commercially available anti-inflammatory preparations
analgesic activity ([9]; compared to customary anti-inflammatory preparations): particularly marked
anti-inflammatory effect ([9]; doses as low as 50 mg/kg): clear anti-inflammatory effect
toxicity levels vs standard substances ([9]; in vivo): very favorable

COc1ccc2c(c1)c(CC(=O)O)c(C)n2C(=O)c1ccc(Cl)cc1 [Indomethacin, 1-(p-Chlorobenzoyl)-5-methoxy-2-methylindole-3-acetic acid]
ED50 [1]: 0.9 mg/kg
therapeutic ratio [1]: 33.3
Notes (analgesic activity) (male mice (NMRI) [2]; i.g.): slightly effective
protection (male mice (NMRI) [2]; i.g., starting with 20 mg/kg): approx. 50%
60 Minutes (paw edema) ([3]; 2.5 mg/kg): 79%
120 Minutes (paw edema) ([3]; 2.5 mg/kg): 81%
180 Minutes (paw edema) ([3]; 2.5 mg/kg): 81%
LD50 (in vivo [10]): 20 to 30 mg/kg
Swelling ([5]; 2 × 2.5 mg/kg): 80%
Granulation Tissue % (Dry Weight) (Granulation Tissue; 2 × 1.5 mg/kg daily): 80%
Increase in Body Weight (Granulation Tissue; 2 × 1.5 mg/kg daily): not influenced
granulation tissue % dry weight (Granulation Tissue; NaCl control group): 91%
granulation tissue % dry weight (Granulation Tissue; tragacanth control group): 65%
Pain Threshold (change vs initial value) ([6]; 5.0 mg/kg): -22%
Volume (increase in paw volume, blank control = 100%) ([6]; 5.0 mg/kg): 131%
Pain Threshold (change vs initial value) ([6]; 20.0 mg/kg): +11%
Volume (increase in paw volume, blank control = 100%) ([6]; 20.0 mg/kg): 108%
change in vivo at 5 mg/kg ([6]; po, ig., 5 mg/kg, section K): -22%
response vs control in vivo at 5 mg/kg ([6]; po, ig., 5 mg/kg, section K, read-out: volume (paw, control = 100%)): 100%
Exitus (footnote) (Granuloma Pouch; 2 × 1.5 mg/kg daily): Exitus of an animal
Granuloma Pouch Dry Weight (Granuloma Pouch; 2 × 1.5 mg/kg daily): 98%
Increase in Body Weight (Granuloma Pouch; 2 × 1.5 mg/kg daily): not influenced
Secretion (Granuloma Pouch; 2 × 1.5 mg/kg daily): 134%
1st Phase (paw edema) ([7]; 1.0 mg/kg): 65%
2nd Phase (paw edema) ([7]; 1.0 mg/kg): 80%
3 Hrs. (total paw edema) ([7]; 1.0 mg/kg): 73%
1st Phase (paw edema) ([7]; 5.0 mg/kg): 80%
2nd Phase (paw edema) ([7]; 5.0 mg/kg): 73%
3 Hrs. (total paw edema) ([7]; 5.0 mg/kg): 73%
LD50 (in vivo [11]): < 10 mg/kg
